Measurements: ChEMBL document CHEMBL1201862, “PubChem BioAssay data set” (2004)
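These data come from cells grown in 96-well plates and exposed to compound for 48 hours at five concentrations. GI50 marks 50% less growth.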 Active and inactive are the calls of the source. No stated cut-off is given here; in the data, active = GI50 up to about 1.1 µM and inactive = higher.

Columns and labels:
Test in all cases: NCI anticancer screen, dose series, 48 h
[1] = tested on: OVCAR-8
[2] = tested on: CCRF-CEM
[3] = tested on: SK-MEL-28
[4] = tested on: SF-295
[5] = tested on: MOLT-4
[6] = tested on: NCI-H522
[7] = tested on: K562
[8] = tested on: RXF 393
[9] = tested on: U-251
[10] = tested on: PC-3
[11] = tested on: SR
[12] = tested on: DU-145
[13] = tested on: CAKI-1
[14] = tested on: UO-31
[15] = tested on: SNB-19
[16] = tested on: HL-60
[17] = tested on: NCI/ADR-RES
[18] = tested on: OVCAR-3
[19] = tested on: NCI-H460
[20] = tested on: OVCAR-5

| Structure (SMILES) | GI50 [1] | GI50 [2] | GI50 [3] | GI50 [4] | GI50 [5] | GI50 [6] | GI50 [7] | GI50 [8] | GI50 [9] | GI50 [10] | GI50 [11] | GI50 [12] | GI50 [13] | GI50 [14] | GI50 [15] | GI50 [16] | GI50 [17] | GI50 [18] | GI50 [19] | GI50 [20] |
| --- | --- | --- | --- | --- | --- | --- | --- | --- | --- | --- | --- | --- | --- | --- | --- | --- | --- | --- | --- | --- |
| COC(=O)c1cc2ccc(O)c(O)c2cn1 | 13.9 µM (inactive) | 1.92 µM (inactive) | 20.4 µM (inactive) | 18.2 µM (inactive) | 3.44 µM (inactive) | 21.6 µM (inactive) | 2.42 µM (inactive) | 18 µM (inactive) | 8.55 µM (inactive) | 24.9 µM (inactive) | 4.25 µM (inactive) | 67.8 µM (inactive) | 13 µM (inactive) | 18.3 µM (inactive) | > 10 µM (inactive) | 3.36 µM (inactive) | 7.59 µM (inactive) | 17.1 µM (inactive) | 19 µM (inactive) | 19.5 µM (inactive) |
| Cc1ccc(S(=O)(=O)Oc2nc3ccccc3nc2OS(=O)(=O)c2ccc(C)cc2)cc1 | > 100 µM (inactive) | 31.6 µM (inactive) | 28 µM (inactive) | > 100 µM (inactive) | 71.3 µM (inactive) | 16.9 µM (inactive) | 32.4 µM (inactive) | > 100 µM (inactive) | > 100 µM (inactive) | > 100 µM (inactive) | 54.7 µM (inactive) | > 100 µM (inactive) | 8.39 µM (inactive) | > 100 µM (inactive) | > 100 µM (inactive) | 32.3 µM (inactive) | > 100 µM (inactive) | > 100 µM (inactive) | > 100 µM (inactive) | > 100 µM (inactive) |
| CN(C)CCCN=C(N)N | > 100 µM (inactive) | > 100 µM (inactive) | > 100 µM (inactive) | > 100 µM (inactive) | > 100 µM (inactive) | > 100 µM (inactive) | > 100 µM (inactive) | > 100 µM (inactive) | > 100 µM (inactive) | > 100 µM (inactive) | > 100 µM (inactive) | > 100 µM (inactive) | > 100 µM (inactive) | > 100 µM (inactive) | > 100 µM (inactive) | 85.3 µM (inactive) | > 100 µM (inactive) | > 100 µM (inactive) | > 100 µM (inactive) | > 100 µM (inactive) |
| CCSc1nnc2c(-c3ccccc3)n[nH]c2n1 | 66.8 µM (inactive) | 24.3 µM (inactive) | > 100 µM (inactive) | 31 µM (inactive) | > 100 µM (inactive) | > 100 µM (inactive) | > 100 µM (inactive) | > 100 µM (inactive) | > 100 µM (inactive) | > 100 µM (inactive) | > 100 µM (inactive) | > 100 µM (inactive) | > 100 µM (inactive) | > 100 µM (inactive) | > 100 µM (inactive) | > 100 µM (inactive) | > 100 µM (inactive) | > 100 µM (inactive) | > 100 µM (inactive) | > 100 µM (inactive) |
| COc1ccc(C2=CC(C(C)=C(C(N)=O)C(N)=O)C=C(c3ccc(Br)cc3)C2)c(OC)c1 (stereo not given) | > 100 µM (inactive) | > 100 µM (inactive) | > 100 µM (inactive) | > 100 µM (inactive) | > 100 µM (inactive) | > 100 µM (inactive) | > 100 µM (inactive) | > 100 µM (inactive) | > 100 µM (inactive) | 50.5 µM (inactive) | > 100 µM (inactive) | > 100 µM (inactive) | > 100 µM (inactive) | 39.9 µM (inactive) | > 100 µM (inactive) | > 100 µM (inactive) | > 100 µM (inactive) | > 100 µM (inactive) | > 100 µM (inactive) | > 100 µM (inactive) |
| CCCc1cn2c(/C=N/NC(=N)N)c(-c3cccc([N+](=O)[O-])c3)nc2s1 | 1.88 µM (inactive) | 0.746 µM (active) | 1.43 µM (inactive) | 1.84 µM (inactive) | 1.23 µM (inactive) | 1.98 µM (inactive) | 1.58 µM (inactive) | 1.89 µM (inactive) | 1.86 µM (inactive) | 2.59 µM (inactive) | 2.09 µM (inactive) | 1.74 µM (inactive) | 2.01 µM (inactive) | 1.9 µM (inactive) | 2.07 µM (inactive) | 2.09 µM (inactive) | 2.92 µM (inactive) | 1.8 µM (inactive) | 2.22 µM (inactive) | 1.81 µM (inactive) |
